Assay: xn = mol fraction of the nth substance listed
Details: Fluid (supercritical or subcritical phases), Vibrating tube method, x1 = 0.97

O=C=O [carbon dioxide] + CO
Details	mass density [kg/m3]
304.21 K, 16700 kPa	863.76
304.21 K, 16725 kPa	864.02
304.21 K, 16750 kPa	864.2
304.21 K, 16775 kPa	864.47
304.21 K, 16800 kPa	864.63
304.21 K, 16825 kPa	864.86
304.21 K, 16850 kPa	865.05
304.21 K, 16875 kPa	865.26
304.21 K, 16900 kPa	865.51
304.21 K, 16925 kPa	865.7
304.21 K, 16950 kPa	865.9
304.21 K, 16975 kPa	866.12
304.21 K, 17000 kPa	866.34
304.21 K, 17025 kPa	866.56
304.21 K, 17050 kPa	866.78
304.21 K, 17075 kPa	866.99
304.21 K, 17100 kPa	867.2
304.21 K, 17125 kPa	867.4
304.21 K, 17150 kPa	867.63
304.21 K, 17175 kPa	867.77
304.21 K, 17200 kPa	867.99
304.21 K, 17225 kPa	868.2
304.21 K, 17250 kPa	868.43
304.21 K, 17275 kPa	868.66
304.21 K, 17300 kPa	868.87
304.21 K, 17325 kPa	869.01
304.21 K, 17350 kPa	869.28
304.21 K, 17375 kPa	869.42
304.21 K, 17400 kPa	869.69
304.21 K, 17425 kPa	869.89
304.21 K, 17450 kPa	870.09
304.21 K, 17475 kPa	870.29
304.21 K, 17500 kPa	870.48
304.21 K, 17525 kPa	870.66
304.21 K, 17550 kPa	870.86
304.21 K, 17575 kPa	871.06
304.21 K, 17600 kPa	871.23
304.21 K, 17625 kPa	871.44
304.21 K, 17650 kPa	871.68
304.21 K, 17675 kPa	871.84
304.21 K, 17700 kPa	872.08
304.21 K, 17725 kPa	872.29
304.21 K, 17750 kPa	872.45
304.21 K, 17775 kPa	872.68
304.21 K, 17800 kPa	872.83
304.21 K, 17825 kPa	873.02
304.21 K, 17850 kPa	873.25
304.21 K, 17875 kPa	873.48
304.21 K, 17900 kPa	873.63
304.21 K, 17925 kPa	873.87
304.21 K, 17950 kPa	874.01
304.21 K, 17975 kPa	874.23
304.21 K, 18000 kPa	874.46
304.21 K, 18025 kPa	874.62
304.21 K, 18050 kPa	874.83
304.21 K, 18075 kPa	875.05
304.21 K, 18100 kPa	875.2
304.21 K, 18125 kPa	875.42
304.21 K, 18150 kPa	875.58
304.21 K, 18175 kPa	875.78
304.21 K, 18200 kPa	876
304.21 K, 18225 kPa	876.22
304.21 K, 18250 kPa	876.35
304.21 K, 18275 kPa	876.56
304.21 K, 18300 kPa	876.78
304.21 K, 18325 kPa	876.99
304.21 K, 18350 kPa	877.14
304.21 K, 18375 kPa	877.36
304.21 K, 18400 kPa	877.5
304.21 K, 18425 kPa	877.73
304.21 K, 18450 kPa	877.88
304.21 K, 18475 kPa	878.11
304.21 K, 18500 kPa	878.3
304.21 K, 18525 kPa	878.46
304.21 K, 18550 kPa	878.68
304.21 K, 18575 kPa	878.87
304.21 K, 18600 kPa	879.03
304.21 K, 18625 kPa	879.24
304.21 K, 18650 kPa	879.38
304.21 K, 18675 kPa	879.61
304.21 K, 18700 kPa	879.76
304.21 K, 18725 kPa	879.99
304.21 K, 18750 kPa	880.19
304.21 K, 18775 kPa	880.38
304.21 K, 18800 kPa	880.58
304.21 K, 18825 kPa	880.78
304.21 K, 18850 kPa	880.89
304.21 K, 18875 kPa	881.09
304.21 K, 18900 kPa	881.28
304.21 K, 18925 kPa	881.49
304.21 K, 18950 kPa	881.68
304.21 K, 18975 kPa	881.88
304.21 K, 19000 kPa	882.06
304.21 K, 19025 kPa	882.19
304.21 K, 19050 kPa	882.43
304.21 K, 19075 kPa	882.62
304.21 K, 19100 kPa	882.73
304.21 K, 19125 kPa	882.92
304.21 K, 19150 kPa	883.11
304.21 K, 19175 kPa	883.3
304.21 K, 19200 kPa	883.48
304.21 K, 19225 kPa	883.65
304.21 K, 19250 kPa	883.86
304.21 K, 19275 kPa	884.07
304.21 K, 19300 kPa	884.25
304.21 K, 19325 kPa	884.43
304.21 K, 19350 kPa	884.6
304.21 K, 19375 kPa	884.78
304.21 K, 19400 kPa	884.95
304.21 K, 19425 kPa	885.12
304.21 K, 19450 kPa	885.28
304.21 K, 19475 kPa	885.46
304.21 K, 19500 kPa	885.62
304.21 K, 19525 kPa	885.78
304.21 K, 19550 kPa	886.04
304.21 K, 19575 kPa	886.21
304.21 K, 19600 kPa	886.37
304.21 K, 19625 kPa	886.54
304.21 K, 19650 kPa	886.76
304.21 K, 19675 kPa	886.92
304.21 K, 19700 kPa	887.09
304.21 K, 19725 kPa	887.24
304.21 K, 19750 kPa	887.4
304.21 K, 19775 kPa	887.64
304.21 K, 19800 kPa	887.8
304.21 K, 19825 kPa	887.96
304.21 K, 19850 kPa	888.12
304.21 K, 19875 kPa	888.28
304.21 K, 19900 kPa	888.48
304.21 K, 19925 kPa	888.67
304.21 K, 19950 kPa	888.82
304.21 K, 19975 kPa	888.98
304.21 K, 20000 kPa	889.2
313.15 K, 8375 kPa	468.68
313.15 K, 8400 kPa	477.47
313.15 K, 8425 kPa	486.09
313.15 K, 8450 kPa	494.72
313.15 K, 8475 kPa	503.03
313.15 K, 8500 kPa	510.78
313.15 K, 8525 kPa	518.43
313.15 K, 8550 kPa	525.63
313.15 K, 8575 kPa	531.85
313.15 K, 8600 kPa	538.44
313.15 K, 8625 kPa	544.56
313.15 K, 8650 kPa	551.14
313.15 K, 8675 kPa	556.46
313.15 K, 8700 kPa	562.19
313.15 K, 8725 kPa	566.94
313.15 K, 8750 kPa	571.39
313.15 K, 8775 kPa	576
313.15 K, 8800 kPa	580.21
313.15 K, 8825 kPa	583.78
313.15 K, 8850 kPa	587.78
313.15 K, 8875 kPa	591.7
313.15 K, 8900 kPa	595.4
313.15 K, 8925 kPa	598.87
313.15 K, 8950 kPa	601.87
313.15 K, 8975 kPa	604.9
313.15 K, 9000 kPa	608.05
313.15 K, 9025 kPa	611
313.15 K, 9050 kPa	613.79
313.15 K, 9075 kPa	616.51
313.15 K, 9100 kPa	619.14
313.15 K, 9125 kPa	621.62
313.15 K, 9150 kPa	624.11
313.15 K, 9175 kPa	626.69
313.15 K, 9200 kPa	629
313.15 K, 9225 kPa	631.2
313.15 K, 9250 kPa	633.38
313.15 K, 9275 kPa	635.44
313.15 K, 9300 kPa	637.48
313.15 K, 9325 kPa	639.32
313.15 K, 9350 kPa	641.4
313.15 K, 9375 kPa	643.26
313.15 K, 9400 kPa	645.2
313.15 K, 9425 kPa	646.98
313.15 K, 9450 kPa	648.9
313.15 K, 9475 kPa	650.62
313.15 K, 9500 kPa	652.27
313.15 K, 9525 kPa	653.94
313.15 K, 9550 kPa	655.55
313.15 K, 9575 kPa	657.12
313.15 K, 9600 kPa	658.64
313.15 K, 9625 kPa	660.18
313.15 K, 9650 kPa	661.7
313.15 K, 9675 kPa	663.21
313.15 K, 9700 kPa	664.7
313.15 K, 9725 kPa	666.14
313.15 K, 9750 kPa	667.47
313.15 K, 9775 kPa	668.89
313.15 K, 9800 kPa	670.26
313.15 K, 9825 kPa	671.58
313.15 K, 9850 kPa	672.87
313.15 K, 9875 kPa	674.13
313.15 K, 9900 kPa	675.44
313.15 K, 9925 kPa	676.66
313.15 K, 9950 kPa	677.96
313.15 K, 9975 kPa	679.1
313.15 K, 10000 kPa	680.33
313.15 K, 10025 kPa	681.48
313.15 K, 10050 kPa	682.54
313.15 K, 10075 kPa	683.7
313.15 K, 10100 kPa	684.8
313.15 K, 10125 kPa	685.84
313.15 K, 10150 kPa	686.83
313.15 K, 10175 kPa	687.88
313.15 K, 10200 kPa	688.8
313.15 K, 10225 kPa	689.94
313.15 K, 10250 kPa	690.95
313.15 K, 10275 kPa	691.93
313.15 K, 10300 kPa	693
313.15 K, 10325 kPa	693.97
313.15 K, 10350 kPa	694.91
313.15 K, 10375 kPa	695.92
313.15 K, 10400 kPa	696.92
313.15 K, 10425 kPa	697.78
313.15 K, 10450 kPa	698.73
313.15 K, 10475 kPa	699.66
313.15 K, 10500 kPa	700.62
313.15 K, 10525 kPa	701.51
313.15 K, 10550 kPa	702.39
313.15 K, 10575 kPa	703.29
313.15 K, 10600 kPa	704.13
313.15 K, 10625 kPa	705.05
313.15 K, 10650 kPa	705.9
313.15 K, 10675 kPa	706.75
313.15 K, 10700 kPa	707.66
313.15 K, 10725 kPa	708.5
313.15 K, 10750 kPa	709.33
313.15 K, 10775 kPa	710.14
313.15 K, 10800 kPa	710.93
313.15 K, 10825 kPa	711.74
313.15 K, 10850 kPa	712.55
313.15 K, 10875 kPa	713.33
313.15 K, 10900 kPa	714.15
313.15 K, 10925 kPa	714.94
313.15 K, 10950 kPa	715.71
313.15 K, 10975 kPa	716.52
313.15 K, 11000 kPa	717.28
313.15 K, 11025 kPa	718.03
313.15 K, 11050 kPa	718.76
313.15 K, 11075 kPa	719.52
313.15 K, 11100 kPa	720.27
313.15 K, 11125 kPa	720.97

Reference: the NIST ThermoML archive (doi:10.1016/j.jct.2016.03.026)
